Data on six compounds can be found in patent US20100129800A1, “POLYMERS AND THEIR USE AS FLUORESCENT LABELS” (priority 2007, published 2010).

Where two headings read alike, the source gives them in different places.

Data set [1] concerns human telomere G-quadruplex. The following applies: 1 μM ligand, 24 hours, room temperature. The text has this: (§1) Compounds that bind nucleic acids may show preference for certain sequences. This preference can be used for the detection of specific nucleic acid sequences. One of the methods used to analyse the sequence specificity of DNA-binding compounds is the competition dialysis (c.f. Ren, J. et al., “Sequence and structural selectivity of nucleic acid binding ligands”, Biochemistry, 1999, vol. 38, pp […]). In this method different nucleic acid structures are dialyzed against a common compound solution. […] The amount of compound present in each DNA sequence is measured by fluorescence.
(§2) Furthermore, the inventors analyzed the binding properties of two dimers of the invention, Act-p-Act and Act-p-Qut, in front of several DNA sequences which are known in the state in the art to be biologically-relevant G-quadruplex structures: • 5′- […]-3′, (SEQ ID NO: 1 supra) as thrombin-binding aptamer: G-quadruplex; • 5′- […]-3′ (SEQ ID NO: 2) as a fragment of the promoter region of c-myc oncogen (c.f. Siddiqui-Jain A. et al., “Direct evidence for a G-quadruplex in a promoter region and its targeting with a small molecule to repress c-myc transcription”, Proc. Natl. Acad. Sci. USA, 2002, v. 99, p. […]
(§3) The concentration of the polymer (which is determined by fluorescence spectroscopy) indicates its specificity for a specific sequence: the more higher is the concentration, more specific is for said sequence.

Data set [2] has as its system c-myc promoter region G-quadruplex. To be noted: 1 μM ligand, 24 hours, room temperature.
Text: as §1, §2, §3

Data set [3] is described as follows: Fluorescence properties of the new compounds (excitation and emission wavelengths). The data set is classed as physicochemical.
The subject of another data set is AT rich sequences. The data set is described as follows: Competitive dialysis. The data set is classed as binding.
Text: as §1
(§4) We analysed the sequence specificity of the following polymers of the invention: Aca-p-Aca, QgpQgp(npa), Act-(p-Act)5, Act-p-Qut-p-Agt, Act-p-Qut-p-Act, Act-p-Qut-p-Nct, Qut-p-Qut-p-Qut, Act-p-Qut-p-Qut, and Act-p-Act-p-Act for DNA sequences: • duplex with an alternating CG sequence (5′-CGCGCG-T4-CGCGCG-3′); • duplex with a contiguous CG sequence (5′- CCCGGG-T4-CCCGGG-3′); • duplex with an alternating AT sequence (5′-[…]-T4-[…]); • duplex with a contiguous AT sequence (5′-[…]-T4-[…]); • a parallel triplex (5′-T20-3′-3′-T20-5′+A20); and • a G-quadruplex (thrombin-binding aptamer: 5′-[…]-3′ (SEQ ID NO 1); (c.f. Bock, L. C. et al., “Selection of single-stranded DNA molecules that bind and inhibit human thrombin”, Nature, 1992, vol. 355, pp 564-566).
(§5) Said DNA sequences have been used in order to determine: 1) the affinity of each one of the polymers for a specific tandem of nucleotides (CG, AT, GT); and 2) if the affinity for a specific tandem of nucleotides is affected by its distribution into the sequence (i.e., if the tandem is alternated or contiguous in the sequence).
(§6) The competition dialysis assay was performed placing into a beaker 200 ml of dialysate solution containing 1 μM of ligand in 2 mM sodium phosphate, 2 mM EDTA and 0.185 M NaCl pH 7.0. A volume of 0.1 ml (at 1 mg/ml) of each DNA samples was pipeted into a separate 0.1 ml dialysis unit (Mini Slide-A-lyzer 3.5K, Pierce). The dialysis units were placed in the beaker containing the dialysate solution using a floating device. The contents were allowed to equilibrate with continuous stirring for 24 hours at room temperature. At the end of the equilibration period, DNA samples were carefully removed to eppendorf tubes and were taken to a final concentration of 1% (w/v) sodium dodecyl sulfate (SDS). The concentration of polymer within each dialysis unit was then determined by fluorescence spectroscopy. The free polymer concentration was determined using an aliquot of the dialysate solution as well as with the solution coming from a blank (without DNA) dialysis unit.
as §3

Data set [4] deals with duplex with a contiguous CG sequence (5′- CCCGGG-T4-CCCGGG-3′). The data set is described as follows: Competitive dialysis. The data set is classed as binding.
Text: as §1, §4, §5, §6, §3

In data set [5] the test system is parallel triplex (5′-T20-3′-3′-T20-5′+A20). The data set is described as follows: Competitive dialysis. The data set is classed as binding.
Text: as §1, §4, §5, §6, §3

The subject of data set [6] is G-quadruplex (thrombin-binding aptamer: 5′-GGTTGGTGTGGTTGG-3′). The following applies: 1 μM ligand, 24 hours, room temperature.
Text: as §1
(§7) We analysed the sequence specificity of the following polymers of the invention: Aca-p-Aca, QgpQgp(npa), Act-(p-Act)5, Act-p-Qut-p-Agt, Act-p-Qut-p-Act, Act-p-Qut-p-Nct, Qut-p-Qut-p-Qut, Act-p-Qut-p-Qut, and Act-p-Act-p-Act for DNA sequences: • duplex with an alternating CG sequence (5′-CGCGCG-T4-CGCGCG-3′); • duplex with a contiguous CG sequence (5′- CCCGGG-T4-CCCGGG-3′); • duplex with an alternating AT sequence (5′-[…]-T4-[…]); • duplex with a contiguous AT sequence (5′-[…]-T4-[…]); • a parallel triplex (5′-T20-3′-3′-T20-5′+A20); and • a G-quadruplex (thrombin-binding aptamer: 5′-[…]-3′ (SEQ ID NO 1); (c.f. Bock, L. C. et al., “Selection of single-stranded DNA molecules that bind and inhibit human thrombin”, Nature, 1992, vol. 355, pp 564-566). […]

In data set [7] the test system is duplex with a contiguous AT sequence (5′-AAAATTTT-T4-AAAATTTT). The following applies: 1 μM ligand, 24 hours, room temperature.
Text: as §1, §7

Setting [8] is: 1 μM ligand, 24 hours, room temperature.

With `CC(O)C(COP(=O)(O)OC(C)C(CO)NC(=O)c1c2ccccc2nc2ccccc12)NC(=O)c1c2ccccc2nc2c1[nH]c1ccccc12` (centres unmarked) [Example 27, O-{2-N-(Acridine-9-carbamoyl)-(1-hydroxybut-3-yl)} and O-{2-N-(10H-indolo[3,2-d]quinoline-11-carbamoyl)-3-hydroxybut-1-yl) phosphate], the “affinity (concentration of polymer retained, by fluorescence)” value (from here on “affinity”) in data set [1] was “very high affinity”. The “affinity” value in data set [2] was “very high affinity”. Also, in data set [3] (free compound), the “Fluorescence Excitation (nm)” value is on record as 358 nm and the “Fluorescence emission (nm)” value was found to be 438 nm.
Consider `CC(O)C(COP(=O)(O)OC(C)C(COP(=O)(O)OC(C)C(CO)NC(=O)c1c2ccccc2nc2ccccc12)NC(=O)c1c2ccccc2nc2c1[nH]c1ccccc12)NC(=O)c1c2ccccc2nc2ccccc12` (centres unmarked) [Example 44, O-{2-N-(Acridine-9-carbamoyl)-(1-hydroxybut-3-yl)} phosphate (3-1) O-{2-N-(10H-indolo[3,2-d]quinoline-11-carbamoyl)-3-oxybut-1-yl} phosphate (3-1) O-{2-N-(acridine-9-carbamoyl)-(3-hydroxybut-1-yl)}], for which the “affinity” value (in the data set on AT rich sequences; in data set [4]; in data set [5]) was “higher affinity” throughout. Also, in data set [3], the “Fluorescence Excitation (nm)” value is 359 nm. Besides, the “Fluorescence emission (nm)” value in data set [3] is 438 nm.
`CC(O)C(COP(=O)(O)OC(C)C(COP(=O)(O)OC(C)C(COP(=O)(O)OC(C)C(COP(=O)(O)OC(C)C(COP(=O)(O)OC(C)C(CO)NC(=O)c1c2ccccc2nc2ccccc12)NC(=O)c1c2ccccc2nc2ccccc12)NC(=O)c1c2ccccc2nc2ccccc12)NC(=O)c1c2ccccc2nc2ccccc12)NC(=O)c1c2ccccc2nc2ccccc12)NC(=O)c1c2ccccc2nc2ccccc12` (centres unmarked) [Example 30, O-{2-N-(Acridine-9-carbamoyl)-(1-hydroxybut-3-yl)} phosphate (3-1) O-{2-N-(acridine-9-carbamoyl)-(1-hydroxybut-3-yl)} phosphate (3-1) O-{2-N-(acridine-9-carbamoyl)-(1-hydroxybut-3-yl)} phosphate (3-1) O-{2-N-(acridine-9-carbamoyl)-(1-hydroxybut-3-yl)} phosphate (3-1) O-{2-N-(acridine-9-carbamoyl)-(1-hydroxybut-3-yl)} phosphate (3-1) O-{2-N-(acridine-9-carbamoyl)-3-hydroxybut-1-yl}]: the “affinity” value in data set [5] (setting [8]) is “high affinity”. Moreover, in data set [3] (free compound), the “Fluorescence Excitation (nm)” value came out at 350 nm and the “Fluorescence emission (nm)” value turned out to be 438 nm.
`CC(O)C(COP(=O)(O)OC(C)C(COP(=O)(O)OC(C)C(CO)NC(=O)c1c2ccccc2nc2ccccc12)NC(=O)c1c2ccccc2nc2c1[nH]c1ccccc12)NC(=O)c1c2ccccc2nc2c1[nH]c1ccccc12` (centres unmarked) [Example 29, O-{2-N-(Acridine-9-carbamoyl)-(1-hydroxybut-3-yl)} phosphate (3-1) O-{2-N-(10H-indolo[3,2-d]quinoline-11-carbamoyl)-3-oxybut-1-yl} phosphate (3-1) O-(2-N-{10H-indolo[3,2-d]quinoline-11-carbamoyl}-3-hydroxybut-1-yl)]: the “affinity” value (in the data set with AT rich sequences (setting [8]); in data set [4] (setting [8]); in data set [5] (setting [8])) was “higher affinity” in each case. Moreover, in data set [3] (free compound), the “Fluorescence Excitation (nm)” value was 353 nm. Further, in data set [3] (free compound), the “Fluorescence emission (nm)” value worked out at 440 nm.
Take `CC(O)C(COP(=O)(O)OC(C)C(COP(=O)(O)OC(C)C(CO)NC(=O)c1c2ccccc2nc2c1[nH]c1ccccc12)NC(=O)c1c2ccccc2nc2c1[nH]c1ccccc12)NC(=O)c1c2ccccc2nc2c1[nH]c1ccccc12` (centres unmarked) [Example 42, O-{2-N-(10H-indolo[3,2-d]quinoline-11-carbamoyl)-3-oxybut-1-yl} phosphate (3-1) O-{2-N-(10H-indolo[3,2-d]quinoline-11-carbamoyl)-3-oxybut-1-yl} phosphate (3-1) O-(2-N-{10H-indolo[3,2-d]quinoline-11-carbamoyl}-3-hydroxybut-1-yl)]: the “affinity” value (in the data set on AT rich sequences (setting [8]); in data set [4] (setting [8]); in data set [5] (setting [8])) was “higher affinity” each time. In data set [3] (free compound), the “Fluorescence Excitation (nm)” value amounted to 359 nm. The “Fluorescence emission (nm)” value in data set [3] (free compound) is 499 nm.
For `CC(=O)NCCN(CC(=O)NCCN(CC(=O)NCCCCCCO)C(=O)CNC(=O)c1c2ccccc2nc2c1[nH]c1ccccc12)C(=O)CNC(=O)c1c2ccccc2nc2c1[nH]c1ccccc12` [Example 48], the “affinity” value in data set [6] and in data set [7] was “high affinity” each time. Further, the “Fluorescence Excitation (nm)” value in data set [3] (free compound) amounted to 349 nm. In addition, in data set [3] (free compound), the “Fluorescence emission (nm)” value is 495 nm.
